Measurements as given in ChEMBL document CHEMBL1126835, “QSAR's from similarity matrices. Technique validation and application in the comparison of different similarity evaluation methods” (J Med Chem, 1993).

Key:
[1] = molecular target: T1, Sex hormone-binding globulin (Homo sapiens) (UniProt P04278)
T1 sequence (whole entry): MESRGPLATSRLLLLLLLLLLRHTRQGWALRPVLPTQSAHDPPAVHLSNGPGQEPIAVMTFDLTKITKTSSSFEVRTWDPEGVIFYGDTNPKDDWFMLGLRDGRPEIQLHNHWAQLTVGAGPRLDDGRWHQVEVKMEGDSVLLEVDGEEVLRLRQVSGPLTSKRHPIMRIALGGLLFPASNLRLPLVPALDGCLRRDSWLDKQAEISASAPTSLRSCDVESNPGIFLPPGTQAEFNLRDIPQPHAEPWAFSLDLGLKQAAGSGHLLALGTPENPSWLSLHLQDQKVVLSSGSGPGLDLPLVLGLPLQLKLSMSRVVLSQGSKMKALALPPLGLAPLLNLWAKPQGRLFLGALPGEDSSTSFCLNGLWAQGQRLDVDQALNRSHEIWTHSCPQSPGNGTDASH
Description: Binding affinity towards human testosterone binding globulin.

[2] = molecular target: T2, Corticosteroid-binding globulin (Homo sapiens) (UniProt P08185)
T2 sequence (whole entry): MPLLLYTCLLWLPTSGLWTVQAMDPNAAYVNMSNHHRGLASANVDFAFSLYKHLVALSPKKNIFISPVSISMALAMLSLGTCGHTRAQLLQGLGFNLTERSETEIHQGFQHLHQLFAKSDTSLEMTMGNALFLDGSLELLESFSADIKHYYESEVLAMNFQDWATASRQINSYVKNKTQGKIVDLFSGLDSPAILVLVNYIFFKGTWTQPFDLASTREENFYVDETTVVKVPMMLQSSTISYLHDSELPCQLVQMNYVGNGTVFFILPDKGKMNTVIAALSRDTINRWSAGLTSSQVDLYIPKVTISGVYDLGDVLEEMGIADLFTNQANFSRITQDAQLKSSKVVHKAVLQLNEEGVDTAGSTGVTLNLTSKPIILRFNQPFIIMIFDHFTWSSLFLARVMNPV
Description: Binding affinity towards human corticosteroid binding globulin.

[3] = Dissociation constant (pKa); format: physicochemical

Compound	Log 1/K [1]	Log 1/K [2]	pKa [3]
CC(=O)[C@H]1CC[C@H]2[C@@H]3CC=C4C[C@@H](O)CC[C@]4(C)[C@H]3CC[C@]12C	-7.15	-5.22	
CN1C=CNC1F (stereo not given)			2.3
CN1C=CNC1N (stereo not given)			8.54
C1=CNC(c2ccncc2)N1			5.36
FC1NC=CN1			2.4
C[C@]12CCC(=O)C=C1CCC1C3CC[C@H](C(=O)CO)[C@@]34C[C@H](OC4O)C12 (stereo not given in full)	-5.32	-6.28	
C1=CNC(c2ccccc2)N1			6.48
C[C@]12CC[C@H]3[C@@H](CCC4=CC(=O)CC[C@@]43C)[C@@H]1CC[C@@H]2C(=O)CO	-7.38	-7.65	
C[C@]12CCC(=O)C=C1CC[C@@H]1[C@@H]2CC[C@]2(C)C(=O)CC[C@@H]12	-7.46	-5.76	
C[C@]12CCC(=O)C=C1CC[C@@H]1[C@@H]2[C@@H](O)C[C@@]2(C)[C@H]1CC[C@]2(O)C(=O)CO	-6.2	-7.88	
CSC1NC=CN1			5.95
CN1C=CNC1Br (stereo not given)			3.82
ClC1NC=CN1			3.55
CN1C=CNC1			7.12
O=[N+]([O-])C1NC=CN1			-0.81
C[C@]12CC[C@H](O)CC1=CC[C@@H]1[C@@H]2CC[C@]2(C)C(=O)CC[C@@H]12	-7.82	-5	
C[C@]12CCC3C4=C(CCC3C1CCC2=O)CC(=O)C=C4 (stereo not given in full)	-8.18	-5	
NC1NC=CN1			8.46
CCCCc1cc2c(cn1)[nH]c1ccccc12	-9.11	-5	
C1=CNCN1			6.99
CC(=O)[C@@]1(O)CC[C@H]2[C@@H]3CCC4=CC(=O)CC[C@]4(C)[C@H]3CC[C@@]21C	-7	-7.74	
C[C@]12C[C@H](O)[C@H]3[C@@H](CCC4=CC(=O)CC[C@@]43C)[C@@H]1CC[C@@H]2C(=O)CO	-6.34	-7.88	
C[C@]12CCC(=O)C=C1CC[C@@H]1[C@@H]2C(=O)C[C@@]2(C)[C@H]1CC[C@]2(O)C(=O)CO	-6.43	-6.89	
CC(=O)[C@@]1(O)CC[C@H]2[C@@H]3CC=C4C[C@@H](O)CC[C@]4(C)[C@H]3CC[C@@]21C	-6.36	-5	
CC(=O)[C@H]1CC[C@H]2[C@@H]3CCC4=CC(=O)CC[C@]4(C)[C@H]3CC[C@]12C	-6.94	-7.38	
CC1NC=CN1			7.86
BrC1NC=CN1			3.79
C[C@]12CC[C@@H](O)C[C@H]1CC[C@@H]1[C@@H]2CC[C@]2(C)C(=O)CC[C@@H]12	-6.15	-5.22	
CCC1NC=CN1			7.73
C[C@]12CCC(=O)C=C1CC[C@@H]1[C@@H]2CC[C@@]2(C)[C@H]1CC[C@]2(O)C(=O)CO	-7.2	-7.88	
